Literature values, collected in patent US20110311619A1 (Ethypharm, priority 2008, published 2011).

Q: Which results are given for CC(C)(Oc1ccc(C(=O)c2ccc(Cl)cc2)cc1)C(=O)O [fenofibric acid]?
A: mean plasma concentration (dose of 300 mg fenofibrate per day): roughly 15 μg/ml; plasma elimination half-life (in vivo): roughly 20 hours; time after ingestion at which maximum plasma concentration is reached (on average, after ingestion of the drug): five
